The source of these data is patent publication US20140336182A1, “Aurora Kinase Modulators and Method of Use” (Amgen Inc., priority 2013, published 2014).

Structures are written as SMILES. Some results are limits rather than exact numbers.

One assay deals with HeLa cells. The assay is described as follows: HeLa cell 24 hr ploidy assay (DNA content). The following applies: Homo sapiens, HeLa, 4N ploidy, average, read-out: 24h_4NPloidy EC50_IP (uM Avg). The assay is classed as cell-based. The gist of the method: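 DNA content measured by Hoechst 33342 nuclear staining (0.5 ug/ml, 45 min RT) and high-content imaging of fixed HeLa cells after 24 h compound exposure in 0.25% DMSO. Fractions of 4N and >4N cells fitted to dose curves giving EC50 IP, EC50 transit, Max and Min.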
On to `NC(=O)c1cc2nccc(Oc3ccc(Nc4nnc(-c5ccccc5)c5ccccc45)cc3)c2s1` [Example 46, 7-(4-(4-phenylphthalazin-1-ylamino)phenoxy)thieno[3,2-b]pyridine-2-carboxamide], for which the EC50 was found to be 0.171 µM.

Take `COc1cc2nccc(Oc3ccc(Nc4nnc(-c5cccs5)c5ccccc45)cc3F)c2cc1OC` [compound 76]: the EC50 stood at 0.06 µM.

`COc1cnc2c(Oc3ccc(Nc4nnc(-c5ccc(C(C)C)cc5)c5ccccc45)cc3)ccnc2c1` [compound 155]: the EC50 was determined as 0.068 µM.

As for `CCc1cc(-c2ccccc2)nnc1Nc1ccc(Oc2ccnc3cc(OC)cnc23)nc1` [compound 83, 4-ethyl-N-(6-((7-(methyloxy)-1,5-naphthyridin-4-yl)oxy)-3-pyridinyl)-6-phenyl-3-pyridazinamine], the EC50 came out at 0.349 µM.

The assay is the same for the next values; noted with them: Homo sapiens, HeLa, HeLa cells, 4N ploidy, average, read-out: 24h_4NPloidy EC50_IP (uM Avg).
As for `Clc1cccc(-c2nnc(Nc3ccc(Sc4ccnc5ccsc45)cc3)c3ccccc23)c1` [compound 518], the EC50 was 0.016 µM.

For `COCCOc1cc(-c2nnc(Nc3ccc(Sc4ccnc5cc(OC)cnc45)cc3)c3ccccc23)ccc1Cl` [compound 450], the EC50 stood at 0.008 µM.

With `COc1cnc2c(Sc3ccc(Nc4nnc(-c5ccc6nonc6c5)c5ccccc45)cc3)ccnc2c1` [compound 504], the EC50 was found to be 0.006 µM.

Regarding `FC(F)Oc1cnc2c(Sc3ccc(Nc4nnc(-c5ccccc5)c5ccccc45)cc3)ccnc2c1` [Example 387, N-(4-(7-(difluoromethoxy)-1,5-naphthyridin-4-ylthio)phenyl)-4-phenylphthalazin-1-amine], the EC50 came out at 0.12 µM.

As to `COc1cnc2c(Oc3ccc(Nc4nnc(-c5cccc(N(C)C)c5)c5ccccc45)cc3)ccnc2c1` [compound 258], the EC50 came to 0.004 µM.

As for `Brc1cnc2c(Oc3ccc(Nc4nnc(-c5ccccc5)c5ccccc45)cc3)ccnc2c1` [compound 245], the EC50 stood at 0.381 µM.

Regarding `N#Cc1ccc2nccc(Oc3ccc(Nc4nnc(-c5ccccc5)c5ccccc45)cc3)c2c1` [compound 592], the EC50 is 0.147 µM.

Take `Cc1csc(-c2nnc(Nc3ccc(Oc4ccnc5ccsc45)cc3)c3ccccc23)c1` [compound 289]: the EC50 turned out to be 0.073 µM.

Consider `COc1ccc2c(Oc3ccc(Nc4nnc(-c5ccc(C(F)(F)F)cc5)c5ccccc45)cc3)c(F)cnc2c1` [Example 39, N-(4-(3-fluoro-7-methoxyvquinolin-4-yloxy)phenyl)-4-(4-(trifluoromethyl)phenyl) phthalazin-1-amine], for which the EC50 is at least 1.2 µM.

In the case of `COc1cnc2c(Oc3ccc(Nc4nnc(-c5csc6ccccc56)c5ccccc45)cc3)ccnc2c1` [compound 169], the EC50 was determined as 0.027 µM.

As for `Clc1ccc(-c2nnc(Nc3ccc(Sc4ccnc5cccnc45)cc3)c3ccccc23)nc1` [compound 493], the EC50 is 0.016 µM.

Take `COc1cnc2c(Sc3ccc(Nc4nnc(-c5ccc6occc6c5)c5ccccc45)cc3)ccnc2c1` [compound 501]: the EC50 was 0.014 µM.

As to `CCc1cc(-c2ccccc2)nnc1Nc1ccc(Sc2ccnc3cc(OC)cnc23)cc1` [compound 274, 4-ethyl-N-(4-(7-methoxy-1,5-naphthyridin-4-ylthio)phenyl)-6-phenylpyridazin-3-amine], the EC50 stood at 0.029 µM.

Regarding `COc1cnc2c(Sc3ccc(Nc4nnc(N5CCN6CCC[C@@H]6C5)c5ccccc45)cc3)ccnc2c1` [compound 582], the EC50 was determined as 0.006 µM.

On to `CCc1cc(-c2cc(C)cs2)nnc1Nc1ccc(Oc2ccnc3cc(OC)cnc23)cc1` [compound 210], for which the EC50 is 0.056 µM.

As for `COc1cc(OC)c2c(Oc3ccc(Nc4nnc(-c5ccccc5)c5ccccc45)cn3)ncnc2c1` [compound 606], the EC50 was found to be 0.292 µM.

Staying with this assay, now noted: Homo sapiens, HeLa, HeLa cells, average, read-out: 24h_4NPloidy EC50_IP (uM Avg).
As to `Oc1cnc2c(Oc3ccc(Nc4nnc(-c5ccc(Cl)cc5)c5ccccc45)cc3)ccnc2c1` [Example 409, 8-(4-(4-(4-Chlorophenyl)phthalazin-1-ylamino)phenoxy)-1,5-naphthyridin-3-ol], the EC50 is 0.032 µM.

As for `COc1ccc2c(C(C)c3ccc(Nc4nnc(-c5ccc(Cl)cc5)c5ccccc45)cc3)ccnc2c1` (stereo not shown) [compound 613], the EC50 was over 1.2 µM.
